# Paper PMC4201456, “Cytoxicity and Apoptotic Mechanism of Ruthenium(II) Amino Acid Complexes in Sarcoma-180 Tumor Cells” (PLoS ONE, 2014)
# How the values were obtained:
# [1] = test system: L929 normal cells; assay: MTT cell viability assay, L929 normal cells; assay type: cell-based, murine; details: L929 normal cell line, 48 h
# Experimental: (§1) The murine sarcoma-180 tumor cells (S180) (ATCC# TIB-66) and normal murine fibroblast cells (L-929) (ATCC# CCL-1) were cultured in suspension in RPMI 1640 and DMEM media (Sigma Chemical Co., MO), respectively, supplemented with 10% fetal calf serum, 100 µg/mL penicillin, and 100 µg/mL streptomycin. The cultures were incubated in a humidified incubator (Thermo Scientific) at 37°C with 5% CO2.
# (§2) The cytotoxic effects of the amino acid ruthenium complexes were evaluated using an MTT assay with S180 tumor cells and L929 normal cells as described previously. Briefly, 1.0×10^5 S180 cells and 2.0×10^4 L929 cells were plated in 96-well tissue culture plates and treated with different concentrations of amino acid ruthenium complexes (0.2–200 µM) for 48 h. After treatment, 10 µL of MTT (5 mg mL^−1) was added to each well, and the plates were incubated at 37°C for an additional 3 h. The purple formazan crystals were dissolved in 50 µL of SDS, and the absorbance was determined at 545 nm using a Stat Fax 2100 microplate reader (Awareness Technology, Palm City, FL, USA). The cell viability was calculated as follows: viability (%) = (absorbance of the treated wells)/(absorbance of the control wells) ×100. The IC50 (complex concentration (µM) that results in a 50% reduction in cellular viability) was obtained from dose-response curves using GraphPad Prism 4.02 for Windows (GraphPad Software, San Diego, CA, USA).
# [2] = test system: S180 tumor cells; assay: MTT cell viability assay, S180 tumor cells; assay type: cell-based, murine; details: S180 tumor cell line, 48 h
# Experimental: as §1, §2
# [3] = test system: pBR322 plasmid DNA; parameters: method as in PMID 21875763; details: previous study; cited from earlier work
# [4] = test system: S180 cells; parameters: method as in earlier work; details: previous studies; cited from earlier work
IC50 [2],Structure (SMILES),IC50 [1],effect on plasmid DNA (AFM images) [3],numbers of Annexin V-positive S180 cells [4]
22.5 ± 3.4 µM,"CSCC[C@H](N)C(=O)[O-].F[P-](F)(F)(F)(F)F.[Ru+2].c1ccc(-c2ccccn2)nc1.c1ccc(P(CCCCP(c2ccccc2)c2ccccc2)c2ccccc2)cc1 [Complex 1, [Ru(met)(bipy)(dppb)]PF6]",27.4 ± 3.32 µM,,
,F[P-](F)(F)(F)(F)F.O=C1[O][Ru-4]23([n+]4ccccc41)([n+]1ccccc1-c1cccc[n+]12)[P+](c1ccccc1)(c1ccccc1)CCCC[P+]3(c1ccccc1)c1ccccc1 [[Ru(pic)(dppb(bipy)]PF6],,strong aggregation of plasmid DNA,
42.2 ± 3.98 µM,"F[P-](F)(F)(F)(F)F.F[P-](F)(F)(F)(F)F.N[C@@H](CC(=O)O)C(=O)O.[Ru+2].c1ccc(-c2ccccn2)nc1.c1ccc(P(CCCCP(c2ccccc2)c2ccccc2)c2ccccc2)cc1 [Complex 4, [Ru(aspac)(bipy)(dppb)](PF6)2]",107 ± 8.98 µM,,
,N.N.N.N.[Cl-].[Cl][Ru+][Cl] [cis-[RuCl2(NH3)4]Cl],,,increased the numbers of Annexin V-positive S180 cells
38.2 ± 7 µM,"CC(C)C[C@H](N)C(=O)[O-].F[P-](F)(F)(F)(F)F.[Ru+2].c1ccc(-c2ccccn2)nc1.c1ccc(P(CCCCP(c2ccccc2)c2ccccc2)c2ccccc2)cc1 [Complex 3, [Ru(leu)(bipy)(dppb)]PF6]",47.1 ± 5.94 µM,,
50.2 ± 1.03 µM,"C[C@H](N)C(=O)[O-].F[P-](F)(F)(F)(F)F.[Ru+2].c1ccc(-c2ccccn2)nc1.c1ccc(P(CCCCP(c2ccccc2)c2ccccc2)c2ccccc2)cc1 [Complex 5, [Ru(ala)(bipy)(dppb)]PF6]",97.8 ± 8.99 µM,,

Structure (SMILES),IC50 [2],IC50 [1],effect on plasmid DNA (AFM images) [3],numbers of Annexin V-positive S180 cells [4]
"N.N.[Cl][Pt][Cl] [Cisplatin, cisplatin, reference compound]",64.83 ± 0.17 µM,29.1 ± 1.88 µM,,
